Measured values reported in patent publication US8975251B2, “Methods of improving cognitive functions” (Bar-Ilan University, priority 2009, dated 2015).
Entries after “also recorded” stand apart in the source; their conditions may differ. Where a name gives a salt, the structure may show the parent alone.

Legend:
[1] = test system: PCP-induced reversal learning deficit; experiment: PCP-induced reversal learning task in rats; assay type: in vivo, rat
Text: Antipsychotic drugs: BL-1020 (perphenazine 4-aminobutyrate, mesylate salt; BioLineRx Ltd., Israel; administered per os); risperidone (Sigma, UK; administered intra-peritoneally); and perphenazine (Sigma, Israel; administered per os).
GABAA antagonists: picrotoxin (Sigma, UK; administered intra-peritoneally); and bicuculline (Sigma, UK; administered intra-peritoneally).
Female hooded-Lister rats (Charles River, UK) were housed in groups of five under standard laboratory conditions under a 12 hr diurnal cycle. Rats were maintained at approx 85% of free-feeding body weight average (250 grams) for the duration of the study.
Following habituation to the operant chambers, rats were trained to respond for food on an FR1 (Fixed Ratio 1) schedule of reinforcement with active levers active, as described by Abdul-Monim et al. (J. Psychopharmacology 17: 57-65, 2003). When a proper response for food was established the rats were trained to press either the left or right lever (only one of levers was active) for food delivery. The active lever was varied from day to day using a pseudorandom Gellerman schedule, which randomly assigns either the left or right lever as active, thus avoiding generation of a lever bias. Each session lasted 20 minutes and counts were recorded on each lever.
Following completion of the first phase of training (within about two weeks) the rats were trained to respond ter food according to the position of a visual cue (a lit LED). Half of the rats were trained to press the lever under the lit LED in order to receive a food reward. The other half of the rats were trained on the opposite contingency (i.e., to press the lever under the non-lit LED). Each training session began with illumination of the house-light. After three seconds both levers, together with the visual cue, were presented. The cue was presented for one second. […] The levers were then retracted and the house light was extinguished for a three-second time-out period, during which the pellet was consumed (if a correct response had been made). The house-light was then turned on again and the cycle repeated. Following 128 lever presses (which lasted approximately 30 minutes) the training session was terminated.
Each rat had one training session per day. Rats were required to make at least 115 responses on the correct lever (90% correct responding) on at least three consecutive days (which was generally achieved within two weeks). The contingency (visual cue, i.e. LED on or off, relative to active lever) remained constant during this period, though the position of the active lever varied from day to day according to a pseudo-random Gellerman schedule.
Subsequently, rats were trained until they again reached criterion on the opposite contingency (which was generally achieved within two weeks)). Rats achieved criterion at the same rate irrespective of whether they responded to one rule or the other. […]
Following a 7 day drug (PCP)-free period the rats were treated with test agents (antipsychotic drugs and GABAA-receptor antagonists). Sixty minutes later the rats were exposed for five-minutes (“initial phase”) to the same contingency (cue position relative to active lever) as was during the operant training session and their responses (pressing on correct and incorrect levers) were recorded. Following a two-minutes recess the animals were exposed for five-minutes to a reversed contingency (“reversal phase”) during which their responses (pressing on correct and incorrect levers) were recorded. […]

[2] = test system: patients having acute exacerbation of schizophrenia; experiment: Clinical trial, Brief Assessment of Cognition in Schizophrenia (BACS); assay type: in vivo, human; conditions: for BACS mean change from baseline at Day 42, Mean (SD): 42 days; for BACS Difference in LS-means vs. Placebo (ANCOVA) / BACS Difference in LS-mean vs. Risperidone (ANCOVA): Day 42; for cognitive functions as compared to the placebo: schizophrenic patients, human clinical trial
Procedure: The trial was conducted at forty sites located in the USA, Europe and India. For the trial 363 patients were recruited and randomized equally. Drugs (BL-1020, 10 mg/day; BL-1020, 20-30 mg/day; risperidone, 2-8 mg/day and placebo) have been administered to designated patients (double blinded) daily over a period of 42 days.
Key secondary efficacy measures included the Clinical Global Impression of Severity (CGI-S), the Clinical Global Impression of Change (CGI-C) from baseline, and effect on cognition as measured by the Brief Assessment of Cognition in Schizophrenia (BACS). Risperidone at a dose of 2-8 mg was included as a positive control to validate the study results.
Assessments of cognitive functions of treated patients have been performed on day zero (baseline) and on day 42 (end of study), using the test battery designed for use in patients with schizophrenia [Richard Keefe (Ed.), Brief Assessment of Cognition in Schizophrenia (BACS) Version 3.0, Duke University Medical Center, 1999; and Keefe et al., Schizophrenia Research, 68: 283-297, 2004]. The battery consists of brief assessments of processing speed, reasoning and problem solving and verbal and working memory. A composite score is obtained by summing the z-scores of six measures (verbal memory, digit sequencing, token motor task, fluency, symbol coding and Tower of London).

With picrotoxin the “effect on BL-1020 improvement of PCP-induced reversal learning deficit” value ([1]; picrotoxin 0.5 mg/kg co-administered with BL-1020 3 mg/kg, p<0.001) was “negated the BL-1020 effect” and the “effect on PCP-induced reversal learning deficit (percent correct response)” value (“effect … (percent correct response)” below) ([1]; picrotoxin 0.25, 0.5 and 1 mg/kg intra-peritoneally) was “did not significantly improve”.

With `Cc1nc2n(c(=O)c1CCN1CCC(c3noc4cc(F)ccc34)CC1)CCCC2` [Risperidone, risperidone, reference compound] the “BACS test mean score at Baseline, Mean (SD)” value (“BACS test mean score … (SD)” for short) ([2]; Risperidone 8 mg/day group, day 0, n = 91) was 13.5 (12.3), the “BACS mean change from baseline at Day 42, Mean (SD)” value (“BACS mean change … (SD)” below) ([2]; Risperidone 8 mg/day) was 5.7 (6.2) and the “BACS Difference in LS-means vs. Placebo (ANCOVA)” value ([2]; Risperidone 8 mg/day) was 0.52. For the same compound, the “cognitive functions as compared to the placebo” value [2] was “failed to improve cognitive functions”.

In the case of `OCCN1CCN(CCCN2c3ccccc3Sc3ccc(Cl)cc32)CC1` [perphenazine], the “effect … (percent correct response)” value ([1]; perphenazine 2.49 mg/kg per os (equivalent to perphenazine moiety in 3 mg/kg BL-1020)) is reported as “did not significantly improve; also recorded: failed to improve cognitive functions”.

For `c1ccc(C2(N3CCCCC3)CCCCC2)cc1` [PCP, phencyclidine hydrochloride], the “percent correct responding animals in the reversal learning task” value ([1]; PCP 2 mg/kg intra-peritoneally twice daily for 7 days, p<0.01) was “significantly reduced”.

For `NCCCC(=O)OCCN1CCN(CCCN2c3ccccc3Sc3ccc(Cl)cc32)CC1` [BL-1020, 4-amino-butyric acid 2-{4-[3-(2-chloro-phenothiazin-10-yl)-propyl]piperazin-1-yl}-ethyl ester], the “BACS test mean score … (SD)” value ([2]; BL-1020 10 mg/day group, day 0, n = 90) was 16.7 (15.5), the “BACS mean change … (SD)” value ([2]; BL-1020 10 mg/day) was 5.1 (7.1) and the “BACS Difference in LS-mean vs. Risperidone (ANCOVA)” value ([2]; BL-1020 10 mg/day) was 0.11. The “BACS Difference in LS-means vs. Placebo (ANCOVA)” value ([2]; BL-1020 10 mg/day) was 0.63, the “BACS test mean score … (SD)” value ([2]; BL-1020 30 mg/day group, day 0, n = 89) was 15.3 (15.5) and the “BACS mean change … (SD)” value ([2]; BL-1020 30 mg/day) was 8.3 (8.5). The “BACS Difference in LS-mean vs. Risperidone (ANCOVA)” value ([2]; BL-1020 30 mg/day) was 3.40, the “BACS Difference in LS-means vs. Placebo (ANCOVA)” value ([2]; BL-1020 30 mg/day) was 3.92 and the BACS score increase ([2]; BL-1020 high dose 20-30 mg/day, after 42 days) was 8.3 points. For the same compound, the “cognitive functions as compared to the placebo” value [2] was “significantly improved” and the “effect … (percent correct response)” value ([1]; BL-1020 3 mg/kg per os, 60 min before task, p<0.01, 3 mg/kg) was “significantly improved; also recorded: significant improvement”.
